# Test results: patent US5753648A, “Tricyclic benzazepine vasopressin antagonists” (American Cyanamid Company, priority 1996, dated 1998)
# How the values were obtained:
# [1] = target: Rat Hepatic V1 Receptors (Rattus norvegicus, UniProt P30560); test: Binding Assay to Rat Hepatic V1 Receptors
# Method: Binding Assay to Rat Hepatic V1 Receptors
# Rat liver plasma membranes expressing the vasopressin V1 receptor subtypes are isolated by sucrose density gradient according to the method described by Lesko et al, (1973). These membranes are quickly suspended in 50.0 mM Tris.HCl buffer, pH 7.4, containing 0.2% bovine serum albumin (BSA) and 0.1 mM phenylmethylsulfonylfluoride (PMSF) and kept frozen at -70° C. until used in subsequent binding experiments. For binding experiments, the following is added to the wells of a ninety-six well format microtiter plate: 100 μl of 100.0 mM Tris.HCl buffer containing 10.0 mM MgCl2, 0.2% heat inactivated BSA and a mixture of protease inhibitors: leupeptin, 1.0 mg %; aprotinin, 1.0 mg %; 1,10-phenanthroline,2.0 mg %; trypsin inhibitor, 10.0 mg % and 0.1 mM PMSF, 20.0 μl of [phenylalanyl-3,4,5,-^3 H] vaso-pressin (S.A. 45.1 Ci/mmole) at 0.8 nM, and the reaction initiated by the addition of 80 μl of tissue membranes containing 20 μg of tissue protein. The plates are kept undisturbed on the bench top at room temperature for 120 min. to reach equilibrium. Non-specific samples are assayed in the presence of 0.1 μm of the unlabeled antagonist phenylalanylvasopressin, added in 20.0 μl volume. For test compounds, these are solubilized in 50% dimethylsulfoxide (DMSO) and added in 20.0 μl volume to a final incubation volume of 200 μl. Upon completion of binding, the content of each well is filtered off, using a Brandel® cell Harvester (Gaithersburg, Md.). The radioactivity trapped on the filter disk by the ligand-receptor complex is assessed by liquid scintillation counting in a Packard LS Counter, with an efficiency of 65% for tritium. The data are analyzed for IC50 values by the LUNDON-2 program for competition (LUNDON SOFTWARE, Ohio).
# [2] = target: T1, Vasopressin V1 receptor subtype in Human Platelet Membranes (Homo sapiens, UniProt P37288); test: Binding to Vasopressin V1 receptor subtype in Human Platelet Membranes; settings: * V1 receptor subtype in human platelet
# T1 construct: Frozen platelet rich plasma (PRP), received from the Hudson Valley Blood Services, are thawed to room temperature; tissue Hudson Valley Blood Services; host or cells: human platelets (platelet rich plasma)
# Method: Radioligand Binding Experiments with Human Platelet Membranes
# Platelet Source: Hudson Valley Blood Services,
# Westchester Medical Center, Valhalla, N.Y.
# Platelet Membrane Preparation
# Frozen platelet rich plasma (PRP), received from the Hudson Valley Blood Services, are thawed to room temperature. The tubes containing the PRP are centrifuged at 16,000×g for 10 min. at 4° C. and the supernatant fluid discarded. The platelets resuspended in an equal volume of 50.0 mM Tris.HCl, pH 7.5 containing 120 mM NaCl and 20.0 mM EDTA. The suspension is recentrifuged at 16,000×g for 10 min. This washing step is repeated one more time. The wash discarded and the lysed pellets homogenized in low ionic strength buffer of Tris.HCl, 5.0 mM, pH 7.5 containing 5.0 mM EDTA. The homogenate is centrifuged at 39,000×g for 10 min. The resulting pellet is resuspended in Tris.HCl buffer, 70.0 mM, pH 7.5 and recentrifuged at 39,000×g for 10 min. The final pellet is resuspended in 50.0 mM Tris.HCl buffer pH 7.4 containing 120 mM NaCl and 5.0 mM KCl to give 1.0-2.0 mg protein per ml of suspension.
# Binding to Vasopressin V1 receptor subtype in Human Platelet Membranes
# In wells of 96 well format microtiter plate, add 100 μl of 50.0 mM Tris.HCl buffer containing 0.2% BSA and a mixture of protease inhibitors (aprotinin, leupeptin etc.). Then add 20 μl of [^3 H]Ligand (Manning or Arg^8 Vasopressin), to give final concentrations ranging from 0.01 to 10.0 nM. Initiate the binding by adding 80.0 μl of platelet suspension (approx. 100 μg protein). Mix all reagents by pipetting the mixture up and down a few times. Non specific binding is measured in the presence of 1.0 μM of unlabeled ligand (Manning or Arg^8 Vasopressin). Let the mixture stand undisturbed at room temperature for ninety (90) min. Upon this time, rapidly filter off the incubate under vacuum suction over GF/B filters, using a Brandel® Harvester. Determine the radioactivity caught on the filter disks by the addition of liquid scintillant and counting in a liquid scintillator.
# [3] = target: T2, oxytocin receptors (Rattus norvegicus, UniProt P70536); test: Oxytocin Receptor Binding
# T2 sequence (P70536 1-388): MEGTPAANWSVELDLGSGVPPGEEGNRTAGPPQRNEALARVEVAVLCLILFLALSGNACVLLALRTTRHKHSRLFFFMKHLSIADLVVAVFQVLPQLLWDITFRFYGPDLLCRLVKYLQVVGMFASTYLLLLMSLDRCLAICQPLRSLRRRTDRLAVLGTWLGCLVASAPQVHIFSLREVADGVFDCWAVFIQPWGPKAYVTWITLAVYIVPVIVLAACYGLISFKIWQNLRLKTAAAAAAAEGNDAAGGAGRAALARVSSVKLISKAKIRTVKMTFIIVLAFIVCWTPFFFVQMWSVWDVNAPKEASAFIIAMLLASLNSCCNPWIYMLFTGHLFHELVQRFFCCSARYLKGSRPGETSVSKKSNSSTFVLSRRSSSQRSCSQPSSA
# Method: Female Sprague-Dawley rats weighing approximately 200-250 g are injected intramuscularly (i.m.) with 0.3 mg/kg of body weight of diethylstilbestrol (DES). The rats are sacrificed 18 hours later under pentobarbital anesthesia. The uteri are dissected out, cleaned of fat and connective tissues and rinsed in 50 ml of normal saline. The tissue pooled from six rats is homogenized in 50 ml of 0.01 mM Tris.HCl, containing 0.5 mM dithiothreitol and 1.0 mM EDTA, adjusted to pH 7.4, using a polytron at setting 6 with three passes of 10 sec each. The homogenate is passed through two (2) layers of cheesecloth and the filtrate centrifuged at 1000×g for 10 min. The clear supernatant is removed and recentrifuged at 165,000×g for 30 min. The resulting pellet containing the oxytocin receptors is resuspended in 50.0 mM Tris.HCl containing 5.0 mM MgCl2 at pH 7.4, to give a protein concentration of 2.5 mg/ml of tissue suspension. This preparation is used in subsequent binding assays with [^3 H]Oxytocin.
# Binding of 3,5-[^3 H]Oxytocin ([^3 H]OT) to its receptors is done in microtiter plates using [^3 H]OT, at various concentrations, in an assay buffer of 50.0 mM Tris.HCl, pH 7.4 and containing 5.0 mM MgCl2, and a mixture of protease inhibitors: BSA, 0.1 mg; aprotinin, 1.0 mg; 1,10-phenanthroline, 2.0 mg; trypsin, 10.0 mg; and PMSF, 0.3 mg per 100 ml of buffer solution. Non-specific binding is determined in the presence of 1.0 uM unlabeled OT. The binding reaction is terminated after 60 min., at 220° C., by rapid filtration through glass fiber filters using a Brandel® cell harvester (Bio-medical Research and Development Laboratories, Inc., Gaithersburg, Md.). Competition experiments are conducted at equilibrium using 1.0 nM [^3 H]OT and varying the concentration of the displacing agents. The concentrations of agent displacing 50% of [^3 H]OT at its sites (IC50) are calculated by a computer assisted LUNDON-2 program (LUNDON SOFTWARE INC., Ohio, USA).
# T1 sequence (P37288 whole entry): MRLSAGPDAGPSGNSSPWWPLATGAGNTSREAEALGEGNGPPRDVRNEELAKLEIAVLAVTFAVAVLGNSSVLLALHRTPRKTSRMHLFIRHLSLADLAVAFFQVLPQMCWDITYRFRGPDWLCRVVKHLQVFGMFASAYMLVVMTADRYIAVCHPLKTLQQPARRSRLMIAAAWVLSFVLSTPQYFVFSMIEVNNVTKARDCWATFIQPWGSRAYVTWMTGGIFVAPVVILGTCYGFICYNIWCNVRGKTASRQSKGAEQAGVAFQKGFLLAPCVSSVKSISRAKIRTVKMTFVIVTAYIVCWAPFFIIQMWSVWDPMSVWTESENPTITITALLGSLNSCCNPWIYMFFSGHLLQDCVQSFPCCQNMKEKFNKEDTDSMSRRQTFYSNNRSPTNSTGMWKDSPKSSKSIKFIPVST
# Sequence of Rat Hepatic V1 Receptors (P30560 whole entry): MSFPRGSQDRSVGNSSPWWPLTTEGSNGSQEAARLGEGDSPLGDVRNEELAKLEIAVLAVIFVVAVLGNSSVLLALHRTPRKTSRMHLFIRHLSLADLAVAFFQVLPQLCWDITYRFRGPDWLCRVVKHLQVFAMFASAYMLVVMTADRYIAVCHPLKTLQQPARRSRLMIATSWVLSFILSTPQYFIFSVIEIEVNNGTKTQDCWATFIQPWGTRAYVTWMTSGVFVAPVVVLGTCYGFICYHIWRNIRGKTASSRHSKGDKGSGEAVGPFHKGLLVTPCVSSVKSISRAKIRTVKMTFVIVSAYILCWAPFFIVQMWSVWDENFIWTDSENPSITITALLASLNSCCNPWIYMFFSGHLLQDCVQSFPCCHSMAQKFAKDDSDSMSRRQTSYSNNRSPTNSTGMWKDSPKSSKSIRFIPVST
structure (smiles),measurement,setting,value
"Cc1ccc(F)cc1C(=O)Nc1ccc(C(=O)N2Cc3cccn3Cc3ccccc32)cn1 [Example 1, N-[5-(5H-Pyrrolo[2,1-c][1,4]benzodiazetin-10(11H)-ylcarbonyl)-2-pyridinyl]-5-fluoro-2-methylbenzamide]",IC50,[1],33 nM
same,IC50,[2],20 nM
same,inhibition at 10 µM,[3]; dose 10 μM,92%
same,IC50,"[3]; rat uterine membranes, [3H]oxytocin",200 nM
